PubChem BioAssay AID256 (DTP/NCI, 2004)
Inconclusive results and toxic doses are left out. Rule for the calls: active = survival T/C of 150% or more; inactive = T/C below 125% in these data.

Tested on: CD2F1 mice, L1210 leukemia ip, survival T/C
Assay: NCI In Vivo Anticancer Drug Screen. Data for tumor model L1210 Leukemia (intraperitoneal) in CD2F1 (CDF1) mice
Conditions: higher = longer survival
Summary of the method: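 Transplantable tumor in mice; compound-treated vs vehicle-treated groups. Read-out = treated/control ratio of the measured endpoint.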

[1] = endpoint: mean survival time, dose: 100.0 mg/kg/injection, schedule: Q01DX009 (ip), vehicle: saline with Tween-80
[2] = endpoint: mean survival time, dose: 200.0 mg/kg/injection, schedule: Q01DX009 (ip), vehicle: saline with Tween-80
[3] = endpoint: mean survival time, dose: 400.0 mg/kg/injection, schedule: Q01DX009 (ip), vehicle: saline with Tween-80
[4] = endpoint: mean survival time, dose: 200.0 mg/kg/injection, schedule: Q04DX002 (ip), vehicle: saline with Tween-80
[5] = endpoint: mean survival time, dose: 400.0 mg/kg/injection, schedule: Q04DX002 (ip), vehicle: saline with Tween-80
[6] = endpoint: mean survival time, dose: 100.0 mg/kg/injection, schedule: Q04DX003 (ip), vehicle: saline with Tween-80
[7] = endpoint: mean survival time, dose: 100.0 mg/kg/injection, schedule: Q04DX002 (ip), vehicle: saline with Tween-80
[8] = endpoint: mean survival time, dose: 200.0 mg/kg/injection, schedule: Q04DX003 (ip), vehicle: saline with Tween-80
[9] = endpoint: mean survival time, dose: 100.0 mg/kg/injection, schedule: Q01DX009 (ip), vehicle: saline

Measured: T/C

CC1=CCCC2C1(C)CCC(C)C2(C)Cc1cc(O)ccc1O (stereo not given)
inactive: endpoint: median survival time, dose: 6.25 mg/kg/injection, schedule: Q01DX005 (ip), vehicle: Klucel (hydroxypropylcellulose) (HPC) 107 % of control | endpoint: median survival time, dose: 12.5 mg/kg/injection, schedule: Q01DX005 (ip), vehicle: Klucel (hydroxypropylcellulose) (HPC) 103 % of control | endpoint: median survival time, dose: 25.0 mg/kg/injection, schedule: Q01DX005 (ip), vehicle: Klucel (hydroxypropylcellulose) (HPC) 98 % of control | endpoint: median survival time, dose: 50.0 mg/kg/injection, schedule: Q01DX005 (ip), vehicle: Klucel (hydroxypropylcellulose) (HPC) 102 % of control | endpoint: median survival time, dose: 100.0 mg/kg/injection, schedule: Q01DX005 (ip), vehicle: Klucel (hydroxypropylcellulose) (HPC) 97 % of control

CCOC(=O)C(OC(C)=O)c1ccccc1 (stereo not given)
inactive: [1] 98 % of control | [2] 93 % of control | [3] 96 % of control

O=C1C=C(Nc2ccccc2)CCC1
inactive: [1] 94 % of control | [2] 100 % of control | [3] 97 % of control

COc1ccc(NC(=O)Nc2ccc(Cl)cc2OC)cc1
inactive: [4] 93 % of control | [5] 90 % of control

CCCCCCC(=C/c1ccccc1)/C=N/NC(=O)c1ccc[n+](C)c1
inactive: [6] 98 % of control

CCCCCCCCCCCCOc1c(Cl)cc(Cl)cc1Cl
inactive: [7] 101 % of control | [4] 101 % of control | [5] 104 % of control

Cc1cc(O)cc(=O)o1
inactive: endpoint: mean survival time, dose: 200.0 mg/kg/injection, schedule: Q01DX001 (ip), vehicle: other 93 % of control | endpoint: mean survival time, dose: 400.0 mg/kg/injection, schedule: Q01DX001 (ip), vehicle: other 105 % of control

C/C(CC(=O)Nc1ccccn1)=N\c1ccccn1
inactive: [6] 96 % of control | [8] 94 % of control

COc1ccccc1NC(=O)Nc1cccc([N+](=O)[O-])c1OC
inactive: [7] 97 % of control | [4] 87 % of control | [5] 94 % of control

COc1cc(NC(=O)Nc2ccc(S(N)(=O)=O)cc2)c(Cl)c(OC)c1
inactive: [1] 95 % of control | [2] 95 % of control | [3] 104 % of control

N=C(N)SSC(=N)N
inactive: endpoint: mean survival time, dose: 50.0 mg/kg/injection, schedule: Q01DX009 (ip), vehicle: saline 96 % of control | [9] 100 % of control

CCCCNC(=O)CCC(=O)O
inactive: [1] 109 % of control | [6] 99 % of control | [2] 94 % of control | [8] 99 % of control | [3] 96 % of control | endpoint: mean survival time, dose: 400.0 mg/kg/injection, schedule: Q04DX003 (ip), vehicle: saline with Tween-80 95 % of control

C/C(=C\c1ccccc1)C(=O)c1ccccc1
inactive: endpoint: mean survival time, dose: 100.0 mg/kg/injection, schedule: Q04DX003 (ip), vehicle: Klucel (hydroxypropylcellulose) (HPC) 106 % of control | endpoint: mean survival time, dose: 200.0 mg/kg/injection, schedule: Q04DX003 (ip), vehicle: Klucel (hydroxypropylcellulose) (HPC) 101 % of control | endpoint: mean survival time, dose: 400.0 mg/kg/injection, schedule: Q04DX003 (ip), vehicle: Klucel (hydroxypropylcellulose) (HPC) 98 % of control

O=C(CNC(=O)Nc1cccc(C(F)(F)F)c1)N/N=C/c1cc(Br)ccc1O
inactive: endpoint: mean survival time, dose: 50.0 mg/kg/injection, schedule: Q01DX009 (ip), vehicle: saline with Tween-80 96 % of control | [1] 88 % of control

OCCN1CCNC1=S
inactive: [9] 97 % of control | endpoint: mean survival time, dose: 100.0 mg/kg/injection, schedule: Q04DX003 (ip), vehicle: saline 97 % of control | endpoint: mean survival time, dose: 200.0 mg/kg/injection, schedule: Q01DX009 (ip), vehicle: saline 97 % of control | endpoint: mean survival time, dose: 200.0 mg/kg/injection, schedule: Q04DX003 (ip), vehicle: saline 92 % of control | endpoint: mean survival time, dose: 400.0 mg/kg/injection, schedule: Q01DX009 (ip), vehicle: saline 102 % of control | endpoint: mean survival time, dose: 400.0 mg/kg/injection, schedule: Q04DX003 (ip), vehicle: saline 98 % of control

CCOc1c(C#N)c2c(N)ncnc2n1C1OC(CO)C(O)C1O (stereo not given)
inactive: endpoint: mean survival time, dose: 12.5 mg/kg/injection, schedule: Q01DX009 (ip), vehicle: distilled water + Tween-80 103 % of control | endpoint: mean survival time, dose: 25.0 mg/kg/injection, schedule: Q01DX009 (ip), vehicle: distilled water + Tween-80 112 % of control | endpoint: mean survival time, dose: 50.0 mg/kg/injection, schedule: Q01DX009 (ip), vehicle: distilled water + Tween-80 112 % of control | endpoint: mean survival time, dose: 100.0 mg/kg/injection, schedule: Q01DX009 (ip), vehicle: distilled water + Tween-80 117 % of control
